Like-named read-outs stand apart in the source and are kept apart here.
Columns and labels:
[1] = target: T1, LXRβ full length (FL) (Homo sapiens, UniProt P55055, INS174Q); assay: LXR Gal4 reporter transient transfection assay, mammalian two-hybrid, FL-M2H Gal4β; type: cell-based; conditions: HEK293 cells; inverse agonist unless *
T1 construct: the full length (FL) proteins of LXRα (amino acids 1-447); NP005684; NP009052; expressed in transfected cells; host or cells: HEK293
T1 sequence (P55055 with tags, fused parts or gaps INS174Q): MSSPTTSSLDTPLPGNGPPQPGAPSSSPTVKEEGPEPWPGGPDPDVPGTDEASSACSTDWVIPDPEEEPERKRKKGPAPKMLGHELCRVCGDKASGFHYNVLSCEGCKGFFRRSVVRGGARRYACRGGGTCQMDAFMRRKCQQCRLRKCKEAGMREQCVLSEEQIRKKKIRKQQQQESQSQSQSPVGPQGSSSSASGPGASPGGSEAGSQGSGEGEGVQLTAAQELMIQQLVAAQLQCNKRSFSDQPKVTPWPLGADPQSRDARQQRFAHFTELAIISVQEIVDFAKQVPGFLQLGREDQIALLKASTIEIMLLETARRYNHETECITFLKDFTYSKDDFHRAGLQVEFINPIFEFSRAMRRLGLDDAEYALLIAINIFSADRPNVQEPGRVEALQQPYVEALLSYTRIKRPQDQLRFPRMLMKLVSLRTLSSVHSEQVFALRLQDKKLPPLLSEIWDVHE
Method in brief: (§1)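 HEK293 cells transiently cotransfected with NFkB-AD fusions of full-length or LBD LXRα/β, GAL4-DBD fusions of SRC1 coactivator or NCoR corepressor domains, GAL4-driven firefly luciferase and Renilla control. Compound added 4 h post-transfection (≤0.2% DMSO), 16 h incubation; firefly and Renilla luminescence read sequentially.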

[2] = target: T2, GST-LXRβ ligand-binding domain (Homo sapiens, UniProt P55055, INS174Q); assay: TR-FRETβ activity assay (NCoA3 coactivator peptide recruitment); type: biochemical; conditions: 1 μM 24(S)-25-epoxycholesterol as prestimulating agonist; inverse agonist unless *
T2 construct: amino acids 156-461; NP009052; made in house; host or cells: E. coli
T2 sequence (P55055 with tags, fused parts or gaps INS174Q limits assumed): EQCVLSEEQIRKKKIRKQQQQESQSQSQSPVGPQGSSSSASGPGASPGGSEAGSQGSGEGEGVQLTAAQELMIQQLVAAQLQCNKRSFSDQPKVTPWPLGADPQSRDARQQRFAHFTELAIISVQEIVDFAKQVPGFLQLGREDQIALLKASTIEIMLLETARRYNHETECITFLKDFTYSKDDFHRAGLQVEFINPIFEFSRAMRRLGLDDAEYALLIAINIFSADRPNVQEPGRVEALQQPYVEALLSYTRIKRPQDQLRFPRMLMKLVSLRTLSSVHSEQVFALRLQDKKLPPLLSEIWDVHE
Method in brief: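 E. coli-expressed GST-LXRβ LBD (aa 156-461, 76 nM) with biotinylated NCoA3 peptide (400 nM), anti-GST-Tb cryptate donor and streptavidin-XL665 acceptor in 240 mM KCl, BSA, 0.002% Triton X-100. Equilibrated 1 h at 4° C; TR-FRET read at 615/665 nm, triplicates.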

[3] = Pharmacokinetics in mice after single oral dosing, blood and liver exposure by LC-MS; type: in vivo, mice (C57/bl6/J); conditions: single oral dose 20 mg/kg; for Kp at 4 h / Kp at 12 h: male, C57/bl6/J, mouse, liver/blood, read-out: liver/blood ratio
Protocol: The pharmacokinetics of the compounds was assessed in mice after single dosing and oral administrations. Blood and liver exposure was measured via LC-MS.
The study design was as follows:
Animals: C57/bl6/J (Janvier) males Diet: standard rodent chow Dose: 20 mg/kg Animal handling: animals were withdrawn from food at least 12 h before administration Design: single dose oral administration, n=3 animals per group Sacrifice: at stated time point (4, 12 or 24 h) after administration Bioanalytics: LC-MS of liver and blood samples

[4] = target: T3, LXRα full length (FL) (Homo sapiens, UniProt Q13133); assay: LXR Gal4 reporter transient transfection assay, mammalian two-hybrid, FL-M2H Gal4α; type: cell-based; conditions: HEK293 cells; inverse agonist unless *
T3 construct: the full length (FL) proteins of LXRα (amino acids 1-447); NP005684; expressed in transfected cells; host or cells: HEK293
T3 sequence (Q13133 1-447): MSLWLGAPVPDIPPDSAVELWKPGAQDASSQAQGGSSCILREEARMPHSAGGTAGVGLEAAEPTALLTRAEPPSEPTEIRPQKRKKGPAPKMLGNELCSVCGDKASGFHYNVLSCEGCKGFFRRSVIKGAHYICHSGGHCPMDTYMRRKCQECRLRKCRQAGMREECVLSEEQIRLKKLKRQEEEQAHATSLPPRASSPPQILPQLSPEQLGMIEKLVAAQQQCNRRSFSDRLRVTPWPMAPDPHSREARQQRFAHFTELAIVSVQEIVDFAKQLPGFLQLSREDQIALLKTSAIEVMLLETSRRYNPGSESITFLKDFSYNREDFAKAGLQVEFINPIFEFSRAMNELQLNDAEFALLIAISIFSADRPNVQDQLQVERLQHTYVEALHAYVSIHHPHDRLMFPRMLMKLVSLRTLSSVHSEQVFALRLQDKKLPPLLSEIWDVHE
Method in brief: as §1

[5] = target: T4, LXRβ ligand-binding domain (LBD) (Homo sapiens, UniProt P55055, INS174Q); assay: LXR Gal4 reporter transient transfection assay, mammalian two-hybrid, LBD-M2H Gal4β; type: cell-based; conditions: HEK293 cells; inverse agonist unless *
T4 construct: or LXR (amino acids 156-461); expressed in transfected cells; host or cells: HEK293
T4 sequence (P55055 with tags, fused parts or gaps INS174Q limits assumed): T2 sequence (P55055 with tags, fused parts or gaps INS174Q limits assumed)
Protocol: The tested compounds were usually dissolved, tested and stored as 20 mM stock solutions in DMSO. Since sulfonyl acetic acid derivatives tend to decarboxylate under these conditions, these stock solutions were prepared, tested and stored as 20 mM DMSO stock solutions containing 100 mM trifluoroacetic acid (5 equivalents). Sulfonyl acetic acid derivatives are shelf stable as solid at rt for long time as reported by Griesbrecht et al. (Synlett 2010:374) or Faucher et al. (J. Med. Chem. 2004; 47:18).
LXR Gal4 Reporter Transient Transfection Assays
LXRα and LXRβ activity status was determined via detection of interaction with coactivator and corepressor proteins in mammalian two-hybrid experiments (M2H). For this, via transient transfection the full length (FL) proteins of LXRα (amino acids 1-447; NP005684; SEQ ID NO:1) or LXRβ-(amino acids 1-461; NP009052; SEQ ID NO:2) or the ligand-binding domains (LBD) of LXRα (amino acids 155-447 SEQ ID NO:3) or LXR (amino acids 156-461; SEQ ID NO:4) were expressed from pCMV-AD (Stratagene) as fusions to the transcriptional activation domain of NFkB. As cofactors, domains of either the steroid receptor coactivator 1 (SRC1; amino acids 552-887; SEQ ID NO:5) or of the corepressor NCoR (amino acids 1906-2312; NP006302; SEQ ID NO:6) were expressed as fusions to the DNA binding domain of the yeast transcription factor GAL4 (from pCMV-BD; Stratagene). Interaction was monitored via activation of a coexpressed Firefly Luciferase Reporter gene under control of a promoter containing repetitive GAL4 response elements (vector pFRLuc; Stratagene). Transfection efficiency was controlled via cotransfection of constitutively active pRL-CMV Renilla reniformis luciferase reporter (Promega). HEK293 cells were grown in minimum essential medium (MEM) with 2 mM L-glutamine and Earle's balanced salt solution supplemented with 8.3% fetal bovine serum, 0.1 mM non-essential amino acids, 1 mM sodium pyruvate, at 37° C. in 5% CO2. 3.5×10^4 cells/well were plated in 96-well cell culture plates in growth medium supplemented with 8.3% fetal bovine serum for 16-20 h to—90% confluency. For transfection, medium was taken off and LXR and cofactor expressing plasmids as well as the reporter plasmids are added in 30 μL OPTIMEM/well including polyethylene-imine (PEI) as vehicle. Typical amounts of plasmids transfected/well: pCMV-AD-LXR (5 ng), pCMV-BD-cofactor (5 ng), pFR-Luc (100 ng), pRL-CMV (0.5 ng). Compound stocks were prepared in DMSO, prediluted in MEM to a total volume of 120 μL, and added 4 h after addition of the transfection mixture (final vehicle concentration not exceeding 0.2%). Cells were incubated for additional 16 h, lysed for 10 min in 1×Passive Lysis Buffer (Promega) and Firefly and Renilla luciferase activities were measured sequentially in the same cell extract using buffers containing D-luciferine and coelenterazine, respectively. Measurements of luminescence were done in a BMG-luminometer.

[6] = Short term HFD mouse model: liver and plasma exposure after multiple oral dosing; type: in vivo, mice (C57BL/6J); conditions: C57BL/6J, HFD mice, three oral doses of 10 mg/kg each, 4 h after final dose
Excerpt: Short Term HFD Mouse Model:
For this, C57BL/6J were purchased from Elevage Janvier (Rennes, France) at the age of 8 weeks. After an acclimation period of two weeks, animals were prefed on a high fat diet (HFD) (Ssniff Spezialdiäten GmbH, Germany, Surwit EF D12330 mod, Cat. No. E15771-34), with 60 kcal % from fat plus 1% (w/w) extra cholesterol (Sigma-Aldrich, St. Louis, Mo.) for 5 days. Animals were maintained on this diet during treatment with LXR modulators. The test compounds were formulated in 0.5% hydroxypropylmethylcellulose (HPMC) and administered in three doses (from 1.5 to 20 mg/kg each) by oral gavage according to the following schedule: on day one, animals received treatment in the morning and the evening (ca. 17:00), on day two animals received the final treatment in the morning after a 4 h fast and were sacrificed 4 h thereafter. Animal work was conducted according to the national guidelines for animal care in Germany.
Multiple oral dosing of compounds from the present invention in mice lead to a high liver exposure with a favourable liver to plasma ratio. […] These genes are related to hepatic de-novo lipogenesis. A suppression of these genes will reduce liver fat (liver triglycerides).

| SMILES | EC50 [1] [nM] | EC50 [2] [nM] | Kp at 4 h ([3]; time point 4 h) | blood/plasma exposure ([3]; time point 4 h) [µM] | liver exposure ([3]; time point 4 h) [µM] | EC50 [4] [nM] | EC50 [5] [nM] | Kp at 12 h ([3]; time point 12 h) | blood/plasma exposure ([3]; time point 12 h) [µM] | liver exposure ([3]; time point 12 h) [µM] | concentration at 4 h ([6]; liver, read-out: liver exposure, 4 h) [nM] | Kp at 4 h ([6]; liver/plasma, read-out: liver/plasma ratio, 4 h) | concentration at 4 h ([6]; plasma, read-out: plasma exposure, 4 h) [nM] |
| --- | --- | --- | --- | --- | --- | --- | --- | --- | --- | --- | --- | --- | --- |
| N#Cc1ccc2ccccc2c1CN(Cc1ccc(-c2cccc(S(=O)(=O)CC(=O)O)c2)cc1)Cc1ccc(C(F)(F)F)o1 [7/7] | 100 to 1000 | 1000 to 10000 | 44 | 0.01 | 0.42 | 1000 to 10000 | – | – | – | – | – | – | – |
| Cc1cc(C)c(CN(Cc2ccc(-c3cc(F)c(CO)c(S(=O)(=O)CC(=O)O)c3)cc2)Cc2ccc(C(F)(F)F)o2)c(C)c1 [20/1] | 100 to 1000 | 100 to 1000 | 64 | 1.0 | 64 | 1000 to 10000 | – | – | – | – | – | – | – |
| COc1cc(CN(Cc2ccc(C(F)(F)F)o2)Cc2c(C)ccc3ccccc23)ccc1-c1cccc(C(C)(C)C(=O)O)c1 [22/1] | – | 1000 to 10000 | – | – | – | – | 100 to 1000 | – | – | – | – | – | – |
| Cc1ccc2ccccc2c1CN(Cc1ccc(C(F)(F)F)o1)Cc1cnc(-c2cccc(C(C)(C)C(=O)O)c2)s1 [22/2] | – | 1000 to 10000 | – | – | – | – | 100 to 1000 | – | – | – | – | – | – |
| Cc1ccc2ccccc2c1CN(Cc1ccc(C(F)(F)F)o1)Cc1ccc(-c2cncc(S(=O)(=O)CC(=O)O)c2)cc1Cl [26/8] | 100 to 1000 | 1000 to 10000 | 178 | 0.01 | 1.41 | 100 to 1000 | – | – | – | – | – | – | – |
| Cc1ccc2c(F)cccc2c1C(=O)N(Cc1ccc(-c2cccc(C(C)(C)C(=O)O)c2)cc1)Cc1ccc(C(F)(F)F)o1 [27/12] | < 100 | < 100 | – | – | – | < 100 | – | 11 | 3.99 | 43.7 | – | – | – |
| Cc1c(CN(Cc2ccc(-c3cccc(C(C)(C)C(=O)O)c3)cc2)Cc2ccc(C(F)(F)F)o2)c2ccccc2n(C)c1=O [27/23] | < 100 | 100 to 1000 | 19 | 0.15 | 2.9 | < 100 | – | – | – | – | – | – | – |
| Cc1ccc2ccccc2c1CN(Cc1ccc(-c2cccc([C@@H](C)C(=O)O)c2)cc1)Cc1ccc(C(F)(F)F)o1 [27/72] | – | 100 to 1000 | – | – | – | < 100 | – | – | – | – | 2020 | 1.4 | 1440 |
| Cc1ccc2ccccc2c1CN(Cc1ccc(-c2cccc(S(=O)(=O)CC(=O)O)c2)cc1)Cc1ccc(C(F)(F)F)o1 [Example 7/1] | < 100 | 1000 to 10000 | 86 | 0.21 | 18 | 100 to 1000 | – | – | – | – | – | – | – |
| Cc1cc(C)c(CN(Cc2ccc(-c3cccc(C(C)(C)C(=O)O)c3)cc2)Cc2ccc(C(F)(F)F)o2)c(C)c1 [Example 10] | 100 to 1000 | < 100 | – | – | – | 100 to 1000 | – | 2.7 | 0.57 | 1.5 | – | – | – |

— US20200131144A1, “AMINE OR (THIO)AMIDE CONTAINING LXR MODULATORS” (Phenex-FXR GmbH, priority 2017, published 2020)
